Laboratory results reported in US8628864B2, “Indolo[3,2,1-jk]carbazole compound and organic light-emitting device containing the same” (Canon Kabushiki Kaisha, priority 2010, dated 2014).

How the values were obtained:
Format in all cases: physicochemical
[1] = Ionization potential of evaporated thin film, photoelectron spectrometer AC-3
Protocol: The ionization potential of the evaporated thin film used in the measurement of the energy gap described above was measured with a photoelectron spectrometer AC-3 (manufactured by Riken Keiki Co., Ltd.). The ionization potential of the exemplary compound C-1 was 6.01 eV.

[2] = Solubility: amount of chlorobenzene required to dissolve 10 mg of compound; conditions: 10 mg compound
Protocol: The amount of chlorobenzene required to dissolve 10 mg of the exemplary compound C-1 was determined. As a result, the amount of chlorobenzene required to dissolve 10 mg of the exemplary compound C-1 was 1 ml or less.

[3] = Color of evaporated film on glass substrate left to stand in the air; conditions: in the air at room temperature, approximately two hours

SMILES | Ionization potential [1] [eV] | Amount of chlorobenzene required to dissolve 10 mg of compound [2] | Color of film 2 h after film formation [3]
c1ccc2c(c1)c1cc(-c3cc(-c4cc5c6ccccc6n6c7ccccc7c(c4)c56)cc(-c4cc5c6ccccc6n6c7ccccc7c(c4)c56)c3)cc3c4ccccc4n2c13 [FH-01] | 5.83 | 50 or more ml | pale yellowish brown
c1ccc2c(c1)c1cc(-c3ccc(-c4cc5c6ccccc6n6c7ccccc7c(c4)c56)cc3)cc3c4ccccc4n2c13 [FH-02] | 5.72 | 10 mL | pale yellowish brown
